Data as given in patent publication US9145415B2, “Nitrogen-containing heterocyclic compound or salt thereof” (FUJIFILM Corporation, priority 2012, dated 2015).
Read-outs that look alike come from different tables or passages of the source.

Assays:
[1] = molecular target: T1, human FLT3 protein (FLT3 (WT)) (Homo sapiens, UniProt P36888); assay: FLT3 inhibition test (FLT3 enzyme inhibition, time-resolved fluorescence of substrate peptide phosphorylation); type: biochemical; conditions: read-out: FLT3 (WT) enzyme inhibition activity
T1 construct: human FLT3 protein (intracellular region, 564 to 993 aa); GST; purchased Carna Biosciences; host or cells: baculovirus expression system
T1 sequence (P36888 564-993): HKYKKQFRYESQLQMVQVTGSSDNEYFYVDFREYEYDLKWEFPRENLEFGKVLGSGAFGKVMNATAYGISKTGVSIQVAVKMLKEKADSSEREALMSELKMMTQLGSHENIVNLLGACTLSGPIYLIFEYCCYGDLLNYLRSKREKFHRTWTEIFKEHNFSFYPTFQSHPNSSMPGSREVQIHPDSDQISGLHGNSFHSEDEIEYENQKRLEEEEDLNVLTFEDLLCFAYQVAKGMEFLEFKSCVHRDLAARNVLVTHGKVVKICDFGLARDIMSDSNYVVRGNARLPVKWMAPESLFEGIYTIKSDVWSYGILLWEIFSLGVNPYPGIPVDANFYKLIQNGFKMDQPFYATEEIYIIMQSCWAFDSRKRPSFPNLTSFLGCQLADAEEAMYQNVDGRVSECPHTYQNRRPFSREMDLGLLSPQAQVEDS
Summary of the method: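 Wild-type human FLT3 (1.2 μg) pre-incubated with compound 15 min at 25° C in 100 mM HEPES pH 7.5, 10 mM MgCl2, 25 mM NaCl, 1 mM DTT. Reaction started with substrate peptide and ATP (final 50 μM), run 30 min at 25° C; phosphorylation read by time-resolved fluorescence.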

Molm-13 cells = assay: Leukemia cell proliferation inhibition test (ATPlite), Molm-13; type: cell-based; conditions: Homo sapiens, read-out: MOLM13 cell proliferation inhibition effect
Summary of the method: (§1)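 72 h proliferation, 37° C/5% CO2; 10,000 cells/well, RPMI/10% FBS; ATPlite luminescence (RLU); 0.1% DMSO taken as 0% inhibition; GI50 via sigmoid fit, n=2.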

MV4-11 cells = assay: Leukemia cell proliferation inhibition test (ATPlite), MV4-11; type: cell-based; conditions: Homo sapiens, read-out: MV4-11 cell proliferation inhibition effect
Summary of the method: as §1

[2] = GST-fused human FLT3 (564 to 993 aa), ATP 50 μM
[3] = MOLM-13, 72 h, Molm-13, 72 hours culture, ATPlite, GI50 per method
[4] = MV4-11, 72 h, MV4-11, 72 hours culture, ATPlite, GI50 per method

SMILES	IC50 [1, 2]	IC50 (Molm-13 cells; [3])	IC50 (MV4-11 cells; [4])	IC50 ([1]; FLT3 (WT))	IC50 (Molm-13 cells; MOLM-13, MOLM13 cell)	IC50 (MV4-11 cells; MV4-11, MV4-11 cell)
CCCNc1nc(Nc2ccc(C#N)cc2)ncc1C#CCCCNC(=O)CN(CC(C)C)C(=O)/C=C/CN(C)C [Compound 7-65]	< 10 nM	< 10 nM	< 10 nM			
C[C@@H](C(=O)N[C@H]1C[C@@H](C#Cc2cnc(Nc3cccc(F)c3)nc2NC2CC2)C1)N(C)C(=O)/C=C/CN(C)C [Compound 15-7]	< 10 nM	< 10 nM	< 10 nM			
C=CC(=O)NCCOc1cccc(NC(=O)c2cnc(NCCc3ccncc3)nc2NCCC)c1 [Compound 2-20]	< 10 nM	10 to 100 nM	10 to 100 nM			
CNc1ncc(C#C[C@@H]2CCC[C@H](NC(=O)[C@H](C)N(C)C(=O)/C=C/CN(C)C)C2)c(Nc2ccc(OC)cc2)n1 [Compound 21-36]				< 10 nM	< 10 nM	< 10 nM
CCCNc1nc(Nc2ccc3c(OC)nn(C)c3c2)ncc1C#CCCCNC(=O)[C@@H]1CCCN1C(=O)/C=C/CN(C)C [Compound 22-42]				< 10 nM	< 10 nM	< 10 nM
CNc1ncc(C#C[C@@H]2CCC[C@H](NC(=O)[C@H](C)N(C)C(=O)/C=C/CN(C)C)C2)c(NCc2ccccc2)n1 [Compound 21-39]				< 10 nM	< 10 nM	< 10 nM
C=CC(=O)NCC(=O)NCCCNC(=O)c1cnc(Nc2ccc3cnccc3c2)nc1NCCC [Compound 6-5]	< 10 nM	10 to 100 nM	10 to 100 nM			
CCCNc1nc(Nc2ccc(C#N)cc2)ncc1C#CCCCNC(=O)[C@@H]1C[C@H](F)CN1C(=O)/C=C/CN(C)C [Compound 7-50]	< 10 nM	< 10 nM	< 10 nM			
C=CC(=O)NCC(=O)N(C)c1cccc(NC(=O)c2cnc(NCCc3ccncc3)nc2NCCC)c1 [Compound 1-5]	10 to 100 nM	10 to 100 nM	10 to 100 nM			
CCCNc1nc(Nc2ccc(C#N)cc2)ncc1C#CCCCNC(=O)CN(C)C(=O)/C=C/CN(C)C [Compound 7-9, (E)-N-(2-((5-(2-((4-Cyanophenyl)amino)-4-(propylamino)pyrimidin-5-yl)-4-pentyn-1-yl)amino)-2-oxoethyl)-4-(dimethylamino)-N-methyl-2-butenamide]	< 10 nM	< 10 nM	< 10 nM			
CCCNc1nc(Nc2ccc(C#N)cc2)ncc1C#CCCCNC(=O)[C@H](CO)N(C)C(=O)/C=C/CN(C)C [Compound 7-62, (S,E)-N-(1-((5-(2-((4-Cyanophenyl)amino)-4-(propylamino)pyrimidin-5-yl)-4-pentyn-1-yl)amino)-3-hydroxy-1-oxopropan-2-yl)-4-(dimethylamino)-N-methyl-2-butenamide]	< 10 nM	< 10 nM	< 10 nM			
CCOc1nc(Nc2cccc(F)c2)ncc1C#C[C@@H]1CCC[C@H](NC(=O)[C@H](C)N(C)C(=O)/C=C/CN(C)C)C1 [Compound 21-19]	< 10 nM	< 10 nM	< 10 nM			
CCCNc1nc(Nc2cccc(F)c2)ncc1C#CCCCNC(=O)[C@H](CC(C)C)N(C)C(=O)/C=C/CN(C)C [Compound 7-11]	< 10 nM	10 to 100 nM	10 to 100 nM			
CCCNc1nc(Nc2cnc3c(c2)c(C)nn3C)ncc1C#CCCCNC(=O)[C@@H]1CCCN1C(=O)/C=C/CN(C)C [Compound 22-45]				< 10 nM	< 10 nM	< 10 nM
CCCNc1nc(Nc2ccc(C#N)cc2)ncc1C#CCCCNC(=O)[C@H](COC)N(C)C(=O)/C=C/CN(C)C [Compound 7-55]	< 10 nM	< 10 nM	< 10 nM			
C[C@@H](C(=O)NCCCC#Cc1cnc(Nc2ccc(C#N)cc2)nc1NC1CCCC1)N(C)C(=O)/C=C/CN(C)C [Compound 10-48]	< 10 nM	< 10 nM	< 10 nM			
C=CC(=O)NCC(=O)NC(CC)CCNC(=O)c1cnc(NCCc2ccncc2)nc1NCCC (stereo not drawn) [Compound 1-6]	< 10 nM	10 to 100 nM	10 to 100 nM			
CCOc1nc(Nc2ccc(C#N)cc2)ncc1C#C[C@@H]1CCC[C@H](NC(=O)[C@H](C)N(C)C(=O)/C=C/CN(C)C)C1 [Compound 21-20]	< 10 nM	< 10 nM	< 10 nM			

SMILES	IC50 [1, 2]	IC50 (Molm-13 cells; [3])	IC50 (MV4-11 cells; [4])	IC50 ([1]; FLT3 (WT))	IC50 (Molm-13 cells; MOLM-13, MOLM13 cell)	IC50 (MV4-11 cells; MV4-11, MV4-11 cell)
CNc1ncc(C#C[C@@H]2CCC[C@H](NC(=O)[C@H](C)N(C)C(=O)/C=C/CN(C)C)C2)c(Nc2ccc(F)cc2)n1 [Compound 21-37]				< 10 nM	< 10 nM	< 10 nM
CCCN(C)c1nc(Nc2ccc(C(N)=O)cc2)ncc1C#CCCCNC(=O)[C@H](C)N(C)C(=O)/C=C/CN(C)C [Compound 9-6]	< 10 nM	< 10 nM	< 10 nM			
CCCNc1nc(NCCc2ccncc2)ncc1C(=O)Nc1cccc(NC(=O)CCNC(=O)/C=C/CN(C)C)c1 [Compound 2-10]	< 10 nM	100 to 1000 nM	100 to 1000 nM			
CCCNc1cc(Nc2ccc(C#N)cc2)ncc1C#CCCCNC(=O)[C@H](C)N(C)C(=O)/C=C/CN(C)C [Compound 18-1, (S,E)-N-(1-((5-(6-((4-cyanophenyl)amino)-4-(propylamino)pyridin-3-yl)-4-pentyn-1-yl)amino)-1-oxopropan-2-yl)-4-(dimethylamino)-N-methyl-2-butenamide]	< 10 nM	10 to 100 nM	10 to 100 nM			
CNc1nc(Nc2cccc(F)c2)ncc1C#C[C@@H]1CCC[C@H](NC(=O)[C@H](C)N(C)C(=O)/C=C/CN(C)C)C1 [Compound 15-6]	< 10 nM	< 10 nM	< 10 nM			
CCCNc1nc(Nc2cnc3[nH]nc(OC)c3c2)ncc1C#CCCCNC(=O)[C@H](C)N(C)C(=O)/C=C/CN(C)C [Compound 22-66]				< 10 nM	< 10 nM	< 10 nM
CCCNc1nc(Nc2ccc(C(N)=O)cc2)ncc1C#Cc1ccc(NC(=O)CNC(=O)/C=C/CN(C)C)cc1 [Compound 8-4]	< 10 nM	10 to 100 nM	10 to 100 nM			
CCCN(C)c1nc(Nc2ccnc(F)c2)ncc1C#CCCCNC(=O)[C@H](C)N(C)C(=O)/C=C/CN(C)C [Compound 9-10]	< 10 nM	< 10 nM	< 10 nM			
CCCNc1nc(Nc2cnc3c(cnn3C)c2)ncc1C#CCCCNC(=O)[C@H](C)N(C)C(=O)/C=C/CN(C)C [Compound 22-27]				< 10 nM	< 10 nM	< 10 nM
C=CC(=O)N1CCC(NC(=O)c2cnc(NCCc3ccncc3)nc2NCCC)CC1 [Compound 6-18]	< 10 nM	10 to 100 nM	10 to 100 nM			
C=CC(=O)NCC(=O)N1CCC(NC(=O)c2cnc(NCCc3ccncc3)nc2NCCC)C1 (stereo not drawn) [Compound 6-17]	10 to 100 nM	100 to 1000 nM	100 to 1000 nM			
CCCNc1nc(Nc2ccc(C(N)=O)cc2)ncc1-c1ccc(CNC(=O)CNC(=O)/C=C/CN(C)C)cc1 [Compound 16-2]	< 10 nM	100 to 1000 nM	10 to 100 nM			
CNc1nc(Nc2ccc(F)cc2)ncc1C#CCCCNC(=O)[C@@H]1CC(F)(F)CN1C(=O)/C=C/CN(C)C [Compound 7-93]	< 10 nM	< 10 nM	< 10 nM			
CCCNc1nc(Nc2ccc(C(N)=O)cc2)ncc1C(=O)NCCCNC(=O)[C@H](C)N(C)C(=O)/C=C/CN(C)C [Compound 5-1, (S,E)-2-((4-carbamoylphenyl)amino)-N-(3-(2-(4-(dimethylamino)-N-methyl-2-butenamido)propaneamido)propyl)-4-(propylamino)pyrimidine-5-carboxamide]	< 10 nM	< 10 nM	< 10 nM			
COCCCNc1nc(Nc2ccc(F)cc2)ncc1C#CCCCNC(=O)CN(C)C(=O)/C=C/CN(C)C [Compound 10-27]	< 10 nM	< 10 nM	< 10 nM			
CCCNc1nc(Nc2cccc(C#N)c2)ncc1C(=O)Nc1cccc(NC(=O)[C@H](C)N(C)C(=O)/C=C/CN(C)C)c1 [Compound 6-3, (S,E)-2-((3-cyanophenyl)amino)-N-(3-(2-(4-(dimethylamino)-N-methyl-2-butenamido)propanamido)phenyl)-4-(propylamino)pyrimidine-5-carboxamide]	< 10 nM	10 to 100 nM	10 to 100 nM			
CNc1nc(Nc2cccc(C#N)c2)ncc1C#CCCCNC(=O)[C@@H]1CCCN1C(=O)/C=C/CN(C)C [Compound 7-76]	< 10 nM	< 10 nM	< 10 nM			
